Results: patent US12559505B2, “IDH mutant inhibitor and use thereof” (WIGEN BIOMEDICINE TECHNOLOGY (SHANGHAI) CO., LTD., priority 2020, dated 2026)
Like-named read-outs stand apart in the source and are kept apart here.

Columns and labels:
[1] = test system: 2-HG in HT1080 tumor tissues; test: Detection of 2-HG in HT1080 tumor tissues of nude mice; type: in vivo; conditions: Mus musculus, HT-1080, sc, subcutaneous HT1080, 20 mg/kg
Procedure: Nude mice were inoculated subcutaneously with 1×10^6 HT1080 cells. When the tumor volume reached 100-150 mm^3, the mice were randomly grouped into solvent control group and compounds 1, 70, 79, 85, 96, 139, 157 and LY-3410738 20 mg/kg groups. The tumors were collected three days and seven days after continuous administration, weighed, digested with a digestion solution and then homogenized. The level of 2-HG in the tumor tissues were determined by LC-MS-MS. The percentage inhibition of compounds on 2-HG in tumor tissues was calculated as compared with the control.

[2] = target: T1, IDH R132C (Homo sapiens, UniProt O75874, R132C); test: Detection of 2-HG in supernatant of U87-IDH R132C cells; type: cell-based; conditions: 72 h, LC-MS-MS, vs control; for inhibition at 0.001 µM: 1 nM compound, read-out: Inhibition rate of compounds on 2-HG in the supernatant of U87-IDH R132C cells, 1 nM; for inhibition at 0.01 µM: 10 nM compound, read-out: Inhibition rate of compounds on 2-HG in the supernatant of U87-IDH R132C cells, 10 nM; for inhibition at 0.1 µM: 100 nM compound, read-out: Inhibition rate of compounds on 2-HG in the supernatant of U87-IDH R132C cells, 100 nM
T1 construct: expressed in transfected cells; host or cells: U87 cells
T1 sequence (O75874 whole entry R132C): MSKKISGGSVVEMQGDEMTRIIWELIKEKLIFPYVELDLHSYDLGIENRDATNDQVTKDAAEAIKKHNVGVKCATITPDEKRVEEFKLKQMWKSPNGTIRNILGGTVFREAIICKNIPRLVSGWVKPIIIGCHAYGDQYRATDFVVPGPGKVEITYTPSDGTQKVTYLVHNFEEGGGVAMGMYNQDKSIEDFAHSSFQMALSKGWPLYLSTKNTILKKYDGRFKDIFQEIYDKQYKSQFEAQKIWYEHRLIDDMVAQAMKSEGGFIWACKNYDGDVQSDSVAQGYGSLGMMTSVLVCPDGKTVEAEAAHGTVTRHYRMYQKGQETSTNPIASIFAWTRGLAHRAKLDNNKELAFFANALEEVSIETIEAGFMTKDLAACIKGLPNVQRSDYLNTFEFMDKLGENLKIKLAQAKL
Procedure: U87 cells overexpressing the IDH R132C mutation were seeded in a 48-well plate at 50,000 cells/well. After the cells were incubated overnight for adhesion, the supernatant was removed. The cell culture media containing serially diluted compounds were added, and the cells were incubated for 72 h. After 72 h, the cultures were collected and diluted 10-fold with water, and acetonitrile was added to extract the metabolites. The 2-HG content in the cultures was analyzed by LC-MS-MS, and the percentage inhibition of compounds on 2-HG in the supernatant was calculated as compared with the control.

[3] = 72 h, three days of continuous administration, read-out: Inhibition rate of compounds on 2-HG in HT1080 tumor tissues, 3 days
[4] = 168 h, seven days of continuous administration, read-out: Inhibition rate of compounds on 2-HG in HT1080 tumor tissues, 7 days

inhibition at 0.001 µM [2] [%]	inhibition at 0.01 µM [2] [%]	inhibition at 0.1 µM [2] [%]	SMILES	inhibition in vivo at 20 mg/kg [1, 3] [%]	inhibition in vivo at 20 mg/kg [1, 4] [%]
30 to 60	> 90	> 90	C=CC(=O)N1CC2(C1)CN(C(CC1CC1)c1ccc([C@H](C)Nc3ncc4c(n3)N(CC)C(=O)OC4)cc1)C2 (stereo partly shown) [Compound 1]	54 ± 18	95 ± 0.5
60 to 90	> 90	> 90	C=CC(=O)N1CCN(C(CC23CC(C2)C3)c2ccc([C@H](C)Nc3ncc4c(n3)N(CC)C(=O)NC4)cc2)CC1 (stereo partly shown) [Compound 70]	62 ± 8	92 ± 5
30 to 60	60 to 90	> 90	C=CC(=O)N1CCN(C(CC2CC2)c2ccc([C@H](C)Nc3ncc4c(n3)N(C(C)C)C(=O)NC4)cc2)CC1 (stereo partly shown) [Compound 79]	50 ± 3	97 ± 1
30 to 60	60 to 90	> 90	C=CC(=O)N1CCN(C(CC(C)C)c2ccc([C@H](C)Nc3ncc4c(n3)N(C(C)C)C(=O)NC4)cc2)CC1 (stereo partly shown) [Compound 81]	–	–
30 to 60	60 to 90	> 90	C=CC(=O)N1CCN(C(CC2CC2)c2ccc([C@H](C)Nc3ncc4c(n3)N(CC)C(=O)NC4)cc2)CC1 (stereo partly shown) [Compound 82]	–	–
30 to 60	60 to 90	> 90	C=CC(=O)N1CCN([C@H](CC2CC2)c2ccc([C@H](C)Nc3ncc4cnc(=O)n(C(C)C)c4n3)cc2)CC1 [Compound 85-2]	–	–
60 to 90	60 to 90	> 90	C=CC(=O)N1CC2(C1)CN(C(CC1CC1)c1ccc([C@H](C)Nc3ncc4cnc(=O)n(C(C)C)c4n3)cc1)C2 (stereo partly shown) [Compound 86]	–	–
–	–	–	C=CC(=O)NC1CCN(C(CC2CC2)c2ccc([C@H](C)Nc3ncc4cnc(=O)n(C(C)C)c4n3)cc2)CC1 (stereo partly shown) [Compound 96]	29 ± 38	78 ± 4
30 to 60	60 to 90	> 90	C=CC(=O)N1CCN(C(CC2CC2)c2ccc(C3(Nc4ncc5cnc(=O)n(C(C)C)c5n4)CC3)cc2)CC1 (stereo not shown) [Compound 106]	–	–
60 to 90	60 to 90	> 90	C=CC(=O)N1CCN(C(CC2CC2)c2ccc(C3(Nc4ncc5cnc(=O)n(CC)c5n4)CC3)cc2)CC1 (stereo not shown) [Compound 109]	–	–
60 to 90	> 90	> 90	C=CC(=O)N1CCN(C(CC)c2ccc([C@H](C)Nc3ncc4cnc(=O)n(C(C)C)c4n3)cc2)CC1 (stereo partly shown) [Compound 112]	–	–
60 to 90	> 90	> 90	C=CC(=O)N1CCN(C(CC(C)C)c2ccc([C@H](C)Nc3ncc4cnc(=O)n(C(C)C)c4n3)cc2)CC1 (stereo partly shown) [Compound 113]	–	–
60 to 90	> 90	> 90	C=CC(=O)N1CCN([C@@H](CC2CC2)c2ccc([C@H](C)Nc3ncc4cnc(=O)n(CC)c4n3)cc2)CC1 [Compound 114-1]	–	–
30 to 60	> 90	> 90	C=CC(=O)N1CCN([C@H](CC2CC2)c2ccc([C@H](C)Nc3ncc4cnc(=O)n(CC)c4n3)cc2)CC1 [Compound 114-2]	–	–
60 to 90	> 90	> 90	C=CC(=O)N1CCN(C(CC2CC2)c2ccc([C@H](C)Nc3ncc4cnc(=O)n(CC)c4n3)cc2)CC1 (stereo partly shown) [Compound 114]	–	–
30 to 60	> 90	> 90	C=CC(=O)N1CCN(C(CC)c2ccc([C@H](C)Nc3ncc4cnc(=O)n(CC)c4n3)cc2)CC1 (stereo partly shown) [Compound 115]	–	–
60 to 90	> 90	> 90	C=CC(=O)N1CCN([C@@H](CC)c2ccc([C@H](C)Nc3ncc4cnc(=O)n(CC)c4n3)cc2)CC1 [Compound 116-1]	–	–
30 to 60	60 to 90	> 90	C=CC(=O)N1CCN([C@H](CC)c2ccc([C@H](C)Nc3ncc4cnc(=O)n(CC)c4n3)cc2)CC1 [Compound 116-2]	–	–

inhibition at 0.001 µM [2] [%]	inhibition at 0.01 µM [2] [%]	inhibition at 0.1 µM [2] [%]	SMILES	inhibition in vivo at 20 mg/kg [1, 3] [%]	inhibition in vivo at 20 mg/kg [1, 4] [%]
60 to 90	> 90	> 90	C=CC(=O)N1CCN(C(CC(C)C)c2ccc([C@H](C)Nc3ncc4cnc(=O)n(CC)c4n3)cc2)CC1 (stereo partly shown) [Compound 116]	–	–
30 to 60	60 to 90	> 90	C=CC(=O)N1CCN(C(CC(C)(C)C)c2ccc([C@H](C)Nc3ncc4cnc(=O)n(C(C)C)c4n3)cc2)CC1 (stereo partly shown) [Compound 124]	–	–
30 to 60	60 to 90	> 90	C=CC(=O)N1CCN(C(CC2CCC2)c2ccc([C@H](C)Nc3ncc4cnc(=O)n(C(C)C)c4n3)cc2)CC1 (stereo partly shown) [Compound 125]	–	–
60 to 90	> 90	> 90	C=CC(=O)N1CCN(C(CC2(C)CC2)c2ccc([C@H](C)Nc3ncc4cnc(=O)n(CC)c4n3)cc2)CC1 (stereo partly shown) [Compound 131]	–	–
–	–	–	C=CC(=O)N1CCN(C(CC2CCC2)c2ccc([C@H](C)Nc3ncc4c(n3)N(CC)C(=O)OC4)cc2)CC1 (stereo partly drawn) [Compound 139, 7-(((1S)-1-(4-(1-(4-acryloylpiperazin-1-yl)-2-cyclobutylethyl)-phenyl)ethyl)amino)-1-ethyl-1,4-dihydro-2H-pyrimido[4,5-d][1,3]oxazin-2-one]	57 ± 1.8	99 ± 0.4
30 to 60	60 to 90	> 90	C=CC(=O)N1CCN(C(CCC)c2ccc([C@H](C)Nc3ncc4c(n3)N(CC)C(=O)OC4)cc2)CC1 (stereo partly shown) [Compound 141]	–	–
30 to 60	60 to 90	> 90	C=CC(=O)N1CCN(C(CC2CCC2)c2ccc([C@H](C)Nc3ncc4c(n3)N(C(C)C)C(=O)OC4)cc2)CC1 (stereo partly shown) [Compound 143]	–	–
30 to 60	60 to 90	> 90	C=CC(=O)N1CCN(C(CC(C)(C)C)c2ccc([C@H](C)Nc3ncc4c(n3)N(C(C)C)C(=O)OC4)cc2)CC1 (stereo partly shown) [Compound 146]	–	–
60 to 90	> 90	> 90	C=CC(=O)N1CCN([C@@H](CC2CC2)c2ccc([C@H](C)Nc3ncc4c(n3)N(C(C)C)C(=O)OC4)cc2)CC1 [Compound 147-1]	–	–
30 to 60	60 to 90	> 90	C=CC(=O)N1CCN([C@H](CC2CC2)c2ccc([C@H](C)Nc3ncc4c(n3)N(C(C)C)C(=O)OC4)cc2)CC1 [Compound 147-2]	–	–
60 to 90	> 90	> 90	C=CC(=O)N1CCN(C(CC2CC2)c2ccc([C@H](C)Nc3ncc4c(n3)N(C(C)C)C(=O)OC4)cc2)CC1 (stereo partly shown) [Compound 147]	–	–
< 30	60 to 90	> 90	C=CC(=O)N1CCN(C(CC2CC2)c2ccc(C3(Nc4ncc5c(n4)N(C(C)C)C(=O)OC5)CC3)cc2)CC1 (stereo not shown) [Compound 148]	–	–
30 to 60	> 90	> 90	C=CC(=O)N1CCN(C(CC2CC2)c2ccc(C3(Nc4ncc5c(n4)N(CC)C(=O)OC5)CC3)cc2)CC1 (stereo not shown) [Compound 152]	–	–
30 to 60	60 to 90	> 90	C=CC(=O)N1CCN(C(CC2CCC2)c2ccc(C3(Nc4ncc5c(n4)N(CC)C(=O)OC5)CC3)cc2)CC1 (stereo not shown) [Compound 153]	–	–
60 to 90	> 90	> 90	C=CC(=O)N1CCN(C(CC2(C)CC2)c2ccc([C@H](C)Nc3ncc4c(n3)N(CC)C(=O)OC4)cc2)CC1 (stereo partly shown) [Compound 156]	–	–
60 to 90	> 90	> 90	C=CC(=O)N1CCN([C@@H](CC23CC(C2)C3)c2ccc([C@H](C)Nc3ncc4c(n3)N(CC)C(=O)OC4)cc2)CC1 [Compound 157-1]	–	–
30 to 60	60 to 90	> 90	C=CC(=O)N1CCN([C@H](CC23CC(C2)C3)c2ccc([C@H](C)Nc3ncc4c(n3)N(CC)C(=O)OC4)cc2)CC1 [Compound 157-2]	–	–
< 30	< 30	60 to 90	N#Cc1ccnc(N2C(=O)CC[C@H]2C(=O)N(c2cncc(F)c2)[C@H](C(=O)NC2CC(F)(F)C2)c2ccccc2Cl)c1 [Ivosidenib, ivosidenib, reference compound]	–	–
